# Source: patent publication US20260262643A1, “HERBICIDAL BENZOXAZINES” (FMC CORPORATION, priority 2022, published 2026)
# Key:
# ryegrass, Italian [1] = test: Test C preemergence; assay type: in vivo, Lolium multiflorum; conditions: 0 to 100 scale (0 no effect, 100 complete control)
# In short: (§1)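 Pre: seeds in loam/sand, directed soil spray. Post: 1–2 leaf plants, 2–10 cm. Cmpd in non-phytotoxic solvent + surfactant. Greenhouse 10 d; visual rating vs untreated, 0 = none, 100 = complete control.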
# ryegrass, Italian [2] = test: Test C postemergence; assay type: in vivo, Lolium multiflorum; conditions: 10 days
# In short: as §1
# corn [3] = test: Test C postemergence; assay type: in vivo, Zea mays; conditions: 10 days
# In short: as §1
# kochia [4] = test: Test C preemergence; assay type: in vivo, Bassia scoparia; conditions: 0 to 100 scale (0 no effect, 100 complete control)
# In short: as §1
# barnyardgrass [5] = test: Test D flooded paddy test; assay type: in vivo, Echinochloa crus-galli; conditions: 250 g ai/ha, applied to paddy water, visual rating after 13 to 14 days, scale 0 to 100 (0 no effect, 100 complete control)
# In short: (§2)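 Plants grown to the 2-leaf stage; pots flooded to 3 cm above soil at treatment and held at that depth throughout. Test compounds applied directly to the paddy water. After 13 to 14 days in a greenhouse, response was rated visually versus controls on a 0 (no effect) to 100 (complete control) scale.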
# horseweed = test: Test C postemergence; assay type: in vivo, Erigeron canadensis; conditions: 10 days
# In short: as §1
# rice = test: Test D flooded paddy test; assay type: in vivo, Oryza sativa; conditions: 250 g ai/ha, applied to paddy water, visual rating after 13 to 14 days, scale 0 to 100 (0 no effect, 100 complete control)
# In short: as §2
# corn [6] = test: Test C preemergence; assay type: in vivo, Zea mays; conditions: 0 to 100 scale (0 no effect, 100 complete control)
# In short: as §1
# wheat [7] = test: Test C postemergence; assay type: in vivo, Triticum aestivum; conditions: 10 days
# In short: as §1
# green foxtail [8] = test: Test C preemergence; assay type: in vivo, Setaria viridis; conditions: 0 to 100 scale (0 no effect, 100 complete control)
# In short: as §1
# ragweed [9] = test: Test C postemergence; assay type: in vivo, Ambrosia artemisiifolia; conditions: 10 days
# In short: as §1
# kochia [10] = test: Test C postemergence; assay type: in vivo, Bassia scoparia; conditions: 10 days
# In short: as §1
# pigweed, palmer [11] = test: Test C preemergence; assay type: in vivo, Amaranthus palmeri; conditions: Preemergence, 500 g ai/ha; visual rating after 10 days, 0 to 100 scale (0 no effect, 100 complete control)
# In short: as §1
# soybean [12] = test: Test C preemergence; assay type: in vivo, Glycine max; conditions: 0 to 100 scale (0 no effect, 100 complete control)
# In short: as §1
# ducksalad = test: Test D flooded paddy test; assay type: in vivo, Heteranthera limosa; conditions: 250 g ai/ha, applied to paddy water, visual rating after 13 to 14 days, scale 0 to 100 (0 no effect, 100 complete control)
# In short: as §2
# green foxtail [13] = test: Test C postemergence; assay type: in vivo, Setaria viridis; conditions: 10 days
# In short: as §1
# barnyardgrass [14] = test: Test C postemergence; assay type: in vivo, Echinochloa crusgalli; conditions: 10 days
# In short: as §1
# ragweed [15] = test: Test C preemergence; assay type: in vivo, Ambrosia artemisiifolia; conditions: 0 to 100 scale (0 no effect, 100 complete control)
# In short: as §1
# blackgrass [16] = test: Test C preemergence; assay type: in vivo, Alopecurus myosuroides; conditions: 0 to 100 scale (0 no effect, 100 complete control)
# In short: as §1
# barnyardgrass [17] = test: Test C preemergence; assay type: in vivo, Echinochloa crusgalli; conditions: 0 to 100 scale (0 no effect, 100 complete control)
# In short: as §1
# soybean [18] = test: Test C postemergence; assay type: in vivo, Glycine max; conditions: 10 days
# In short: as §1
# sedge, umbrella = test: Test D flooded paddy test; assay type: in vivo, Cyperus difformis; conditions: 250 g ai/ha, applied to paddy water, visual rating after 13 to 14 days, scale 0 to 100 (0 no effect, 100 complete control)
# In short: as §2
# oat, wild [19] = test: Test C preemergence; assay type: in vivo, Avena fatua; conditions: 0 to 100 scale (0 no effect, 100 complete control)
# In short: as §1
# pigweed, palmer [20] = test: Test C postemergence; assay type: in vivo, Amaranthus palmeri; conditions: 10 days
# In short: as §1
# blackgrass [21] = test: Test C postemergence; assay type: in vivo, Alopecurus myosuroides; conditions: 10 days
# In short: as §1
# wheat [22] = test: Test C preemergence; assay type: in vivo, Triticum aestivum; conditions: 0 to 100 scale (0 no effect, 100 complete control)
# In short: as §1
# oat, wild [23] = test: Test C postemergence; assay type: in vivo, Avena fatua; conditions: 10 days
# In short: as §1
# [24] = Preemergence, 500 g ai/ha, visual rating after 10 days
# [25] = Test C, preemergence, 125 g ai/ha
# [26] = 125 g ai/ha, postemergence, 0 to 100 scale, 0 no effect, 100 complete control
# [27] = Postemergence, 500 g ai/ha, visual 0 to 100 scale (0 no effect, 100 complete control)
smiles,measurement,setting,value
Cc1cn(-c2cccc(C(=O)N3C[C@H](C)Oc4c(C)cccc43)c2)cn1 [Compound 232],"Plant response rating, Ryegrass, Italian","ryegrass, Italian [1]; [24]",20
same,"Ryegrass, Italian plant response rating","ryegrass, Italian [1]; [25]",20
same,"Plant response rating, Ryegrass, Italian","ryegrass, Italian [2]; [26]",30
same,"Plant response rating, Ryegrass, Italian","ryegrass, Italian [2]; [27]",60
same,"Plant response rating, Corn",corn [3]; [26],0
same,"Plant response rating, Corn",corn [3]; [27],0
same,"Plant response rating, Kochia",kochia [4]; [24],0
same,Kochia plant response rating,kochia [4]; [25],0
same,"Plant response rating, Barnyardgrass (Flood)",barnyardgrass [5],0
same,"Plant response rating, Horseweed",horseweed; [26],0
same,"Plant response rating, Horseweed",horseweed; [27],0
same,"Plant response rating, Rice (Flood)",rice,0
same,"Plant response rating, Corn",corn [6]; [24],0
same,Corn plant response rating,corn [6]; [25],0
same,"Plant response rating, Wheat",wheat [7]; [26],10
same,"Plant response rating, Wheat",wheat [7]; [27],10
same,"Plant response rating, Foxtail, Green",green foxtail [8]; [24],0
same,"Foxtail, Green plant response rating",green foxtail [8]; [25],0
same,"Plant response rating, Ragweed",ragweed [9]; [26],0
same,"Plant response rating, Ragweed",ragweed [9]; [27],30
same,"Plant response rating, Kochia",kochia [10]; [26],0
same,"Plant response rating, Kochia",kochia [10]; [27],60
same,"Plant response rating, Pigweed, Palmer","pigweed, palmer [11]",0
same,"Plant response rating, Soybean",soybean [12]; [24],0
same,Soybean plant response rating,soybean [12]; [25],0
same,"Plant response rating, Ducksalad (Flood)",ducksalad,0
same,"Plant response rating, Foxtail, Green",green foxtail [13]; [26],0
same,"Plant response rating, Foxtail, Green",green foxtail [13]; [27],30
same,"Plant response rating, Barnyardgrass",barnyardgrass [14]; [26],10
same,"Plant response rating, Barnyardgrass",barnyardgrass [14]; [27],20
same,"Plant response rating, Ragweed",ragweed [15]; [24],0
same,Ragweed plant response rating,ragweed [15]; [25],0
same,"Plant response rating, Blackgrass",blackgrass [16]; [24],0
same,Blackgrass plant response rating,blackgrass [16]; [25],0
same,"Plant response rating, Barnyardgrass",barnyardgrass [17]; [24],0
same,Barnyardgrass plant response rating,barnyardgrass [17]; [25],0
same,"Plant response rating, Soybean",soybean [18]; [26],100
same,"Plant response rating, Soybean",soybean [18]; [27],100
same,"Plant response rating, Sedge, Umbrella (Flood)","sedge, umbrella",0
same,"Plant response rating, Oat, Wild","oat, wild [19]; [24]",0
same,"Oat, Wild plant response rating","oat, wild [19]; [25]",0
same,"Plant response rating, Pigweed, Palmer","pigweed, palmer [20]; [26]",0
same,"Plant response rating, Pigweed, Palmer","pigweed, palmer [20]; [27]",10
same,"Plant response rating, Blackgrass",blackgrass [21]; [26],0
same,"Plant response rating, Blackgrass",blackgrass [21]; [27],50
same,"Plant response rating, Wheat",wheat [22]; [24],0
same,Wheat plant response rating,wheat [22]; [25],0
same,"Plant response rating, Oat, Wild","oat, wild [23]; [26]",0
same,"Plant response rating, Oat, Wild","oat, wild [23]; [27]",0
